Data as given in patent publication US9931346B2, “Serotonin-norepinephrine reuptake inhibitors (SNRIs) and Sigma receptor ligands combinations” (LABORATORIOS DEL DR. ESTEVE S.A., priority 2013, dated 2018).
Structures can show the parent of a compound that is named as a salt.

System: mechanical allodynia of the post-operative pain model
Assay: Mechanical allodynia (von Frey filaments) in the post-operative pain model (plantar incision) in rats
Type: in vivo
Protocol: The induction of anesthesia in rats was performed with 3% isofluran for veterinary use, employing an Ohmeda vaporizer and an anesthesia chamber. Anesthesia was kept during the surgical operation by a tube which directs the isofluran vapors to the animal's snout. Once the rats were anesthetized, they were laid down in a prone position and their right hind paws were cleaned out with alcohol.
Then, a skin incision in the hindpaw of about 10 mm was made by means of a scalpel, starting about 5 mm from the heel and extending toward the toes. Fascia was located and by means of curve scissors muscle was elevated and a longitudinal incision of about 5 mm was made, thus the muscle origin and insertion remained intact. The skin of the paw was stitched with a suturing stitch with breaded silk (3.0) and the wound was cleaned out with povidone.
The assessment was performed 30 minutes after the administration of product and always 4 hours after the plantar incision. The analysis was carried out evaluating the mechanical allodynia. It was tested using von Frey filaments: Animals were placed in methacrylate cylinders on an elevated surface, with metallic mesh floor perforated in order to apply the filaments. After an acclimation period of about 30 minutes within the cylinders, both hindpaws were stimulated (the injured and the non-injured paw, serving the latter as control), starting with the lowest force filament (0.4 g) and reaching a 15 g filament. The animal's response to pain was manifested by the withdrawal of the paw as a consequence of the painful stimulus caused by a filament.
The efficacy of the combined use of venlafaxine and compound 63.HCl was tested at different doses of compound 63.HCl (5, 10, 20, 40 and 80 mg/kg), while the venlafaxine dose remained constant (2.5 mg/kg). The administrations were performed 3.5 hours after surgery. The treated subjects were tested according to the mechanical allodynia protocol above (FIG. 1).
The efficacy of the combined use of duloxetine and compound 63.HCl was tested at different doses of compound 63.HCl (10, 20, 40 and 80 mg/kg), while the duloxetine dose remained constant (0.625 mg/kg). The administrations were performed 3.5 hours after surgery. The treated subjects were tested according to the mechanical allodynia protocol above (FIG. 2).

For CNCC[C@H](Oc1cccc2ccccc12)c1cccs1 [Duloxetine, duloxetine], the “effect on mechanical allodynia (analgesia)” value (FIG. 2, Duloxetine alone, sub-active dose 0.625 mg/kg) was “non-significant effect”.

With COc1ccc(C(CN(C)C)C2(O)CCCCC2)cc1 (stereo not shown) [Venlafaxine, venlafaxine] the “effect on mechanical allodynia (analgesia)” value (FIG. 1, Venlafaxine alone, sub-active dose 2.5 mg/kg) was “non-significant effect”.

For Cc1cc(OCCN2CCOCC2)nn1-c1ccc2ccccc2c1 [compound 63.HCl, 4-{2-[5-Methyl-1-(naphthalen-2-yl)-1H-pyrazol-3-yloxy]ethyl}morpholine hydrochloride], the “maximum effect (analgesia, mechanical allodynia)” value (FIG. 1, compound 63.HCl alone, 5-80 mg/kg, assessed 30 min after administration, 4 h after plantar incision) was 43% and the ED50 (Rattus norvegicus, FIG. 2, compound 63.HCl alone, 10-80 mg/kg, read-out: ED50 (analgesia, mechanical allodynia)) was 40 mg/kg.
